Laboratory results as given in patent US20260199485A1, “RNA DEGRADERS AND USES THEREOF” (Arrakis Therapeutics, Inc., priority 2022, published 2026).

How the values were obtained:
[1] = molecular target: T1, CNOT7-FKBP12(F36V) fusion protein (Homo sapiens, UniProt Q9UIV1); assay: Biochemical gel assay: degradation/deadenylation of RNA substrate with immunoprecipitated CNOT7-FKBP12(F36V); parameters: key to Activity by gel: +: an activity observed as compared to DMSO control; −: no activity observed as compared to DMSO control; details: for Activity by gel: Table 8, degradation of RNA, compared to DMSO control
T1 construct: expressed in transfected cells; host or cells: H1299 cells; anti-HA immunoprecipitation, HA-peptide elution
T1 sequence (Q9UIV1 with tags, fused parts or gaps): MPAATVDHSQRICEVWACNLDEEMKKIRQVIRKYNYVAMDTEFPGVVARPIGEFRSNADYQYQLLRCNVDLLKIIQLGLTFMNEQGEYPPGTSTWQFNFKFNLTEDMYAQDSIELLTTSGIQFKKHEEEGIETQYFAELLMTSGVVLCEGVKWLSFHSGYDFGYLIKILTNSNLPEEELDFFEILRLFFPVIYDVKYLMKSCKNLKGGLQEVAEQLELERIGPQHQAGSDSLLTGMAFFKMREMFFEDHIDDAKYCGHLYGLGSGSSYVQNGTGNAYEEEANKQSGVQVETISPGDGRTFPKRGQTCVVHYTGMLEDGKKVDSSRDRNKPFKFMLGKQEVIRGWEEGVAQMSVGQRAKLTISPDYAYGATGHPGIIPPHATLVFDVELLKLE
From the text: Biochemical reporter systems were generated to evaluate the ability of CNOT7 binding compounds to accelerate the degradation of RNA by CNOT7. […] Generation of the target RNA was described in the previous experiment. […] The bifunctional molecules consist of Compound 1-4 and the following rSM:
which binds to the RNA sequence of AST-X, or the rSM linked to a tag that binds CNOT7-FKBPV. Specifically, the tag is compound AP1867 (CAS NO.: 195514-23-9), a known binder of FKBPV, resulting in the rSM-AP1867tag. The CNOT7-FKBPV is obtained by immunoprecipitation of cell engineered to express CNOT-FKBPV. Specifically, H1299 cells were transfected with plasmid expressing HA-tagged CNOT7-FKBP12(F36V) fusion protein. After 24 hours, cells were pelleted and lysed in the following lysis buffer: 20 mM HEPES pH 7.3, 0.2 mM EGTA, 10% glycerol, 0.1 mM DTT with cOmplete EDTA-free protease inhibitors (Millipore). After freeze-thawing, NaCl was added to a concentration of 400 mM and lysates were pelleted to clear cellular debris. Cleared lysate was adjusted to buffer conditions containing 0.1% NP-40 and 150 mM NaCl before being applied to Pierce Anti-HA magnetic beads (ThermoFisher) at 4° C. for 2-20 hours with end-over-end rotation. After washing, bound protein was competitively eluted with 2 mg/mL HA peptide (ThermoFisher) in activity assay buffer at 4° C. for 2-20 hours. It should be appreciated that this immunoprecipitation protocol will result in tagged CNOT7 that will likely have other components of the CCR4-NOT complex bound as well.
The reactions were incubated at 37° C., with specified timepoints removed from the reaction and combined with 2× formamide RNA loading buffer with 10 mM EDTA before boiling for 3 minutes to quench the reaction. Samples were run on a pre-warmed 15% TBE-Urea polyacrylamide gel at 180V for 90 minutes and then imaged using Cy2 settings on the Azure Biosystems 600 Imaging System. […] It should be noted that the CCR4-NOT complex includes proteins other than CNOT7, for instance CNOT6, that have deadenylation and/or exonuclease activity.
These findings were confirmed in the biochemical assay described above. […] In contrast, literature compounds that are active site binders, compounds A, B and C, structure depicted on the right-hand side, do interfere with the ability of CNOT7 to degrade RNA (See center panel of gel).
Heterobifunctional molecules were generated by conjugating the rSM depicted above, which binds RNA with an AST-X sequence, to AP1867 (a small molecule binder of FKBP12(F36V)), resulting in rSM-AP1867tag. In addition, I-243 was conjugated to the rSM resulting in compounds 1-329 and I-371, depicted in FIG. 17. Fluorescently labeled RNA substrates were refolded in the presence of Mg^2+ and incubated 10, 25, or 50 μM doses of heterobifunctional molecules for 30 minutes at room temperature before the enzymatic reaction was initiated with the elution fraction (containing CNOT7-FKBP12(F36V) fusion protein) from the immunoprecipitation protocol above. The reactions were incubated at 37° C., with specified timepoints removed from the reaction and combined with 2× formamide RNA loading buffer with 10 mM EDTA before boiling for 3 minutes to quench the reaction. Samples were run on a pre-warmed 15% TBE-Urea polyacrylamide gel at 180V for 120 minutes and then imaged using Cy2 settings on the Azure Biosystems 600 Imaging System (See FIGS. 18, 19A and 19B). In addition, for 1-371 and the control rSM-AP1867tag, the disappearance of the full-length substrate band was quantified using ImageJ and plotted over time (FIG. 19B).

CNOT7 = molecular target: T2, CNOT7 (Homo sapiens, UniProt Q9UIV1); assay: Binding of compounds to CNOT7 by surface plasmon resonance (SPR)
T2 construct: biotin (biotinylated); purchased Ichor Life Sciences
T2 sequence (Q9UIV1 whole entry): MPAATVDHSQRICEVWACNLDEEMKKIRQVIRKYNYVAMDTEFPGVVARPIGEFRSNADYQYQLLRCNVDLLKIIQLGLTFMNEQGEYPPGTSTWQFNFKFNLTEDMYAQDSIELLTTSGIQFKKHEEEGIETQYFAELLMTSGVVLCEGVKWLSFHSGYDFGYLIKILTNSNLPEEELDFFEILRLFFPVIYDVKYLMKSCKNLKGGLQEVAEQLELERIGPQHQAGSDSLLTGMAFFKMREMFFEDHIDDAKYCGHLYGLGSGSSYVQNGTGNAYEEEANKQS
Method in brief: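 Biotinylated CNOT7 captured on a streptavidin chip (~7,500 RU); compounds injected at several concentrations (120 s association, 120 s dissociation, 30 ul/min) in 20 mM HEPES pH7.5, 100 mM KCl, 3 mM MgCl2, 1 mM TCEP, 0.05% tween-20, 2% DMSO. Reference- and solvent-corrected sensograms fit to a 1:1 steady-state affinity model.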

[2] = dissociation constant by SPR, Table 7

COc1ccc2c(c1)C[C@@H](COCCOCCOCCOCCn1cc(COCCOCCOCCOCCOc3ccc(NC(=O)Nc4nc(CC(=O)N5CCN(C)CC5)cs4)cc3)nn1)N(C(=O)CSc1nc(=O)[nH]cc1C)C2 [Compound I-497]
Activity by gel [1]: + (weak) | Kd (CNOT7; [2]): > 25 µM

COc1ccc(C(C)NC(=O)C(CCC(=O)N(C)c2cccc(OCCOc3ccc(NC(=O)Nc4nc(CC(=O)N5CCN(C)CC5)cs4)cc3)c2)Sc2nc(=O)[nH]cc2C)c(F)c1 (stereo not shown) [Compound I-515]
Activity by gel [1]: −

COc1ccc(CNC(=O)[C@H](COCCOCCOCCn2cc(COCCOCCOc3ccc(NC(=O)Nc4nc(CC(=O)N5CCN(C)CC5)cs4)cc3)nn2)Sc2nc(=O)[nH]cc2C)c(F)c1 [Compound I-474]
Activity by gel [1]: − | Kd (CNOT7; [2]): 1 to 25 µM

COc1ccc(CNC(=O)[C@H](COCCOCCOCCn2cc(COCCOCCOCCOCCOc3ccc(NC(=O)Nc4nc(CC(=O)N5CCN(C)CC5)cs4)cc3)nn2)Sc2nc(=O)[nH]cc2C)cc1 [Compound I-476]
Activity by gel [1]: − | Kd (CNOT7; [2]): 1 to 25 µM

COc1ccc2c(c1)C[C@@H](COCCOCCOCCOCCn1cc(COCCOCCOc3ccc(NC(=O)Nc4nc(CC(=O)N5CCN(C)CC5)cs4)cc3)nn1)C(C(=O)CSc1nc(=O)[nH]cc1C)C2 (stereo partly shown) [Compound I-495]
Activity by gel [1]: − | Kd (CNOT7; [2]): > 25 µM

COc1ccc(CNC(=O)[C@@H](COCCOCCOCCn2cc(COCCOCCOCCOCCOc3ccc(NC(=O)Nc4nc(CC(=O)N5CCN(C)CC5)cs4)cc3)nn2)Sc2nc(=O)[nH]cc2C)cc1 [Compound I-475]
Activity by gel [1]: − | Kd (CNOT7; [2]): 1 to 25 µM

COc1ccc(C(C)NC(=O)C(CCOCCOCCOCCn2cc(COCCOCCOc3ccc(NC(=O)Nc4nc(CC(=O)N5CCN(C)CC5)cs4)cc3)nn2)Sc2nc(=O)[nH]cc2Cl)c(F)c1 (stereo not shown) [Compound I-395]
Activity by gel [1]: + (weak) | Kd (CNOT7; [2]): 1 to 25 µM

COc1ccc([C@@H](C)NC(=O)[C@@H](CCC(=O)N(C)Cc2cn(CCOc3ccc(NC(=O)Nc4nc(CC(=O)N5CCN(C)CC5)cs4)cc3)nn2)Sc2nc(=O)[nH]cc2C)c(F)c1 [Compound I-506]
Activity by gel [1]: −

COc1ccc(C(C)NC(=O)C(CCOCCOCCOCCn2cc(CCc3ccc(NC(=O)Nc4nc(CC(=O)N5CCN(C)CC5)cs4)cc3)nn2)Sc2nc(=O)[nH]cc2C)c(F)c1 (stereo not shown) [Compound I-382]
Activity by gel [1]: +

Cc1c[nH]c(=O)nc1SCC(=O)NCc1ccc(OCCOCCOCCOCCn2cc(COc3ccc(NC(=O)Nc4nc(CC(=O)N5CCN(C)CC5)cs4)cc3)nn2)cc1 [Compound I-533]
Activity by gel [1]: −

COc1ccc(C(C)NC(=O)C(COCCOCCOCCc2cn(COc3ccc(NC(=O)Nc4nc(CC(=O)N5CCN(C)CC5)cs4)cc3)nn2)Sc2nc(=O)[nH]cc2C)c(F)c1 (stereo not shown) [Compound I-329]
Activity by gel [1]: − | relative potency in biochemical assay ([1]; bait conjugated to rSM (Example 17, FIG. 18)): more potent | Kd (CNOT7; Table 6, dissociation constant for CNOT7 by SPR): 1 to 25 µM | Kd (CNOT7; [2]): 1 to 25 µM

COc1ccc([C@@H](C)NC(=O)[C@@H](COCCOCCOCc2cn(CCOc3ccc(NC(=O)Nc4nc(CC(=O)N5CCN(C)CC5)cs4)cc3)nn2)Sc2nc(=O)[nH]cc2Cl)c(F)c1 [Compound I-372]
Activity by gel [1]: + | Kd (CNOT7; [2]): 1 to 25 µM

COc1ccc2c(c1)CC(COCCOCCOCCOCc1cn(CCOc3ccc(NC(=O)Nc4nc(CC(=O)N5CCN(C)CC5)cs4)cc3)nn1)N(C(=O)CSc1nc(=O)[nH]cc1C)C2 (stereo not shown) [Compound I-451]
Activity by gel [1]: − | Kd (CNOT7; [2]): > 25 µM

COc1ccc([C@@H](C)NC(=O)[C@H](CCOCCOCCOCCn2cc(COCCOCCOCCOCCOc3ccc(NC(=O)Nc4nc(CC(=O)N5CCN(C)CC5)cs4)cc3)nn2)Sc2nc(=O)[nH]cc2Cl)c(F)c1 [Compound I-398]
Activity by gel [1]: −

COc1ccc([C@@H](C)NC(=O)[C@H](COCCOCCOCc2cn(CCOc3ccc(NC(=O)Nc4nc(CC(=O)N5CCN(C)CC5)cs4)cc3)nn2)Sc2nc(=O)[nH]cc2Cl)c(F)c1 [Compound I-373]
Activity by gel [1]: + | Kd (CNOT7; [2]): > 25 µM

COc1ccc([C@@H](C)NC(=O)[C@H](CCC(=O)N(C)Cc2cn(CCOc3ccc(NC(=O)Nc4nc(CC(=O)N5CCN(C)CC5)cs4)cc3)nn2)Sc2nc(=O)[nH]cc2C)c(F)c1 [Compound I-505]
Activity by gel [1]: −
